Measured values: patent publication US20050031717A1, “Salt taste modification” (priority 2003, published 2005)
“Also recorded” adds a separate entry of the source.

Tests used:
[1] = system: amiloride-insensitive salt taste receptor; experiment: Rat chorda tympani (CT) taste nerve recordings; type: in vivo; settings: for effect on NaCl chorda tympani response: no Bz; for effect on RTX-enhanced NaCl chorda tympani response: 100 mM NaCl+5 μM benzamil+0.75 μM RTX, capsazepine 0-500 μM
Excerpt: Chorda tympani nerve recordings. Recordings from the chorda tympani (CT) taste nerves of anesthetized rats were made. Recordings were made with various salt stimuli and with the taste receptive field under current or voltage clamp in order to observe the effect, if any, of modulating the driving force for ions through putative […] apical membrane ion channels involved in salt taste reception.

[2] = system: amiloride-insensitive salt taste receptor; experiment: Chorda tympani responses in wildtype C57BL/6J mice; type: in vivo, mouse
[3] = system: amiloride-insensitive salt taste receptor
[4] = system: polarized rat fungiform taste receptor cells; experiment: [Na+]i measurement (Na-green F490) in polarized taste receptor cells, unilateral apical Na+ flux; type: cell-based
Excerpt: [Na^+]i measurement in polarized taste receptor cells. A small piece of the anterior lingual epithelium containing a single fungiform papilla was mounted in a special microscopy chamber (Lyall et al., 2002, supra). Relative changes in intracellular sodium activity ([Na^+]i) were monitored in polarized taste receptor cells with the sodium sensitive fluoroprobe sodium-green. The taste receptor cells in the taste bud were visualized from the basolateral side through a 40× objective using a fluorescence microscope.

[5] = fixed RTX concentration (0.75 μM), 100 mM NaCl+5 μM Bz

`Nc1ncnc2c1ncn2[C@@H]1O[C@H](COP(=O)(O)OP(=O)(O)OP(=O)(O)O)[C@@H](O)[C@H]1O` [ATP, Adenosine 5′-triphosphate] was tested, and the “effect on chorda tympani response compared to 100 mM NaCl+5 μM benzamil+100 μM evodiamine” value ([1]; 100 μM evodiamine+500 μM ATP, 100 mM NaCl+5 μM benzamil) was “further enhancement” and the “effect on the temperature threshold of the Bz-insensitive NaCl chorda tympani response” value ([1]; ATP 500 μM alone) was “no effect”.

With `COc1cc(CNC(=S)CC(COC(=O)C(C)(C)C)Cc2ccc(C)c(C)c2)ccc1O` (centres unmarked) [Agonist 23, 2-(3,4-dimethylbenzyl)-3-{[(4-hydroxy-3-methoxybenzyl)amino]carbothioyl}propyl pivalate] the “effect on CT response at higher concentrations” value ([1]; 100 mM NaCl+5 μM benzamil) was “decrease”, the “effect on CT response at low concentration” value ([1]; 100 mM NaCl+5 μM benzamil) was “enhances” and the “temperature dependence of effectiveness” value ([1]; 41° versus 23°) was “more effective at 41°”.

With `NC(=NCc1ccccc1)NC(=O)c1nc(Cl)c(N)nc1N` [Bz, benzamil] the “part of the NaCl chorda tympani response that was Bz-insensitive” value ([2]; wildtype mice, 23°, 100 mM NaCl+5 μM Bz) was “about 25%”.

For `C=C(C)[C@]12C[C@@H](C)[C@@]34O[C@](Cc5ccccc5)(O[C@@H]1[C@@H]3C=C(COC(=O)Cc1ccc(O)c(OC)c1)C[C@]1(O)C(=O)C(C)=C[C@@H]41)O2` [RTX, resiniferatoxin], the CT response profile ([1]; 10 mM KCl+0.5 μM RTX at 23°, no ethanol) was “only a transient phasic response”, the “effect of RTX on the CT response to ethanol” value ([1]; 10 mM KCl+40% ETH+0.5 μM RTX, 23° and 42°) was “enhanced the response” and the “effect on temperature threshold of the KCl CT response” value ([1]; 10 mM KCl+60% ETH+0.5 μM RTX) was “without affecting the temperature threshold”. For the same compound, the “effect on NaCl chorda tympani response” value ([1]; 100 mM NaCl+1 μM RTX) was “reversibly increased”, the “concentration at which enhancement of the Bz-insensitive NaCl chorda tympani response begins” value ([1]; 100 mM NaCl+5 μM Bz) was 0.1 µM and the “concentration at which the Bz-insensitive NaCl chorda tympani response decreased to rinse level (eliminated)” value ([1]; 100 mM NaCl+5 μM Bz) was “around 10 μM”. The “concentration at which the NaCl response returned to control level” value ([1]; 100 mM NaCl+5 μM Bz) was “around 3 μM”, the “concentration of maximum enhancement of the Bz-insensitive NaCl chorda tympani response” value ([1]; 100 mM NaCl+5 μM Bz) was 1 µM and the “rank order potency on the Bz-insensitive NaCl chorda tympani response” value ([1]; 100 mM NaCl+5 μM Bz) was “RTX>CAP>CPC”. The “pH of greatest RTX-induced increase in the Bz-insensitive NaCl chorda tympani response” value ([1]; 100 mM NaCl+5 μM Bz+0.5 μM RTX, pHo 2-10) was 6, the “effect on Bz-insensitive NaCl chorda tympani response” value ([1]; 100 mM NaCl+5 μM Bz+1 μM RTX) was “same magnitude of enhancement” and the “effect on NaCl chorda tympani response” value ([1]; 100 mM NaCl+10 μM RTX) was “reversibly decreased”. For the same compound, the “effect on Bz-insensitive NaCl chorda tympani response” value ([1]; NaCl+5 μM Bz+10 μM RTX) was “reduced the response (j-k) to rinse level”, the “effect on the CT responses to sucrose, quinine or H+ ions” value ([1]; rat, in vivo) was “no effect” and the “effect on response to NaCl+Bz” value ([3]; VR1 knockout mice, 0.75 μM RTX, 23° and 42°) was “No effects”. The “effect on Bz-insensitive NaCl chorda tympani response” value ([2]; wildtype mice, 23°, 100 mM NaCl+5 μM Bz+0.75 μM RTX) was “enhanced” and the “response to RTX at 42°” value ([2]; wildtype mice, 42°, 100 mM NaCl+5 μM Bz+0.75 μM RTX) was “significantly enhanced relative to 23°”.

`COc1cccc(NC(=O)C=Cc2ccc(Cl)cc2)c1` [SB-366791, N-(3-methoxyphenol)-4-chlorocinnamide] was tested, and the “effect on Bz-insensitive NaCl chorda tympani response at 23° and elevated temperatures” value ([1]; 1 μM SB-366791, 100 mM NaCl+5 μM Bz) was “completely blocked”, the “effect on CT response to RTX+ETH” value ([1]; RTX+ETH+0.1 μM SB-366791, 23° and 42°) was “completely inhibited the tonic component” and the “effect on transient phasic responses to ethanol” value ([1]; ethanol solutions containing 0.1 mM SB-366791) was “did not affect”. The “increase in F490 on increase of apical Na+ concentration” value ([4]; 150 mM NaCl+) was “completely inhibited; also recorded: no increase” and the “increase in F490 above baseline with ethanol” value ([4]; 150 mM NaCl++40% ETH) was “no further increase”.

With `COc1cc(CNC(=O)CCCC/C=C/C(C)C)ccc1O` [capsaicin] the “chorda tympani response to KCl and NH4Cl at high capsaicin” value ([1]; 100 mM KCl, 100 mM NH4Cl, 200 μM capsaicin) was “a residual response remained”, the “concentration at which the Bz-insensitive NaCl chorda tympani response decreased to rinse level (eliminated)” value ([1]; 100 mM NaCl+5 μM Bz) was 200 µM and the “concentration of maximum enhancement of the Bz-insensitive NaCl chorda tympani response” value ([1]; 100 mM NaCl+5 μM Bz) was 40 µM. The “rank order potency on the Bz-insensitive NaCl chorda tympani response” value ([1]; 100 mM NaCl+5 μM Bz) was “RTX>CAP>CPC” and the “concentration of maximum enhancement of the Bz-insensitive NaCl chorda tympani response” value ([1]; 100 mM NaCl+5 μM Bz, listed as CAP) was “around 40 μM”.

In the case of `Oc1cc2c(cc1O)CN(C(=S)NCCc1ccc(Cl)cc1)CCC2` [capsazepine], the “effect on RTX-enhanced NaCl chorda tympani response” value [1] is reported as “monotonically reduced”, the “effect on RTX-enhanced NaCl chorda tympani response” value ([1]; listed as CZP) is reported as “dose-dependent inhibition” and the “effect on RTX concentration response curve of the Bz-insensitive NaCl chorda tympani response” value ([1]; CZP 10 μM, RTX 0-10 μM) is reported as “shifted the RTX concentration response curve to the right”. For the same compound, the “CZP concentration at which chorda tympani responses decreased to the level with NaCl alone” value [1, 5] was 100 µM, the “CZP concentration at which the chorda tympani response was below the level with NaCl alone” value [1, 5] was no less than 250 µM and the “increase in F490 relative to 150 mM NaCl+5 mM Bz+40% ETH” value ([4]; 150 mM NaCl+5 mM Bz+40% ETH+100 mM CZP) was “significantly smaller increase”.

With `CCO` [ethanol] the “effect on CT response in the presence of RTX” value ([1]; 10 mM KCl+0.5 μM RTX, 40% ETH or 60% ETH, 23°) was “increased the CT response in a dose dependent manner”, the CT response profile ([1]; 10 mM KCl+20% ETH at 42°) was “phasic response followed by a sustained tonic phase” and the “enhancement of the magnitude of the tonic component at 42° relative to 23°” value ([1]; 10 mM KCl+20% ETH+0.5 μM RTX) was 50%. For the same compound, the CT response profile ([1]; 10 mM KCl+20% ETH+0.5 μM RTX at 23°) was “both a phasic component and a sustained tonic component”, the CT response profile ([1]; 10 mM KCl+20% ETH, 23°) was “only a transient phasic response” and the CT response profile ([1]; 10 mM KCl+20% ETH, 23°, listed as ETH) was “did not increase the CT response above baseline”. The CT response profile ([1]; 10 mM KCl+30% ETH) was “only a transient phasic response”, the “magnitude of CT response at 42° relative to 23°” value ([1]; 10 mM KCl+40% ETH) was “enhanced” and the CT response profile ([1]; 10 mM KCl+40% ETH, 23°, listed as ETH) was “transient phasic response that was followed by a sustained tonic response; also recorded: both a phasic and a tonic component”. For the same compound, the CT response profile ([1]; 10 mM KCl+50% ETH and 10 mM KCl+60% ETH) was “both phasic and tonic components”, the “temperature producing a sharp increase in the KCl CT response” value ([1]; 10 mM KCl+60% ETH) was 380 and the “temperature of maximum enhancement of the KCl CT response” value ([1]; 10 mM KCl+60% ETH, 23° to 55.5°) was 41 °. For the same compound, the “effect on magnitude of the Bz-insensitive NaCl CT response” value ([1]; 100 mM NaCl+5 mM Bz+60% ethanol) was “decreased”, the “effect on magnitude of the Bz-insensitive NaCl CT response” value ([1]; 100 mM NaCl+5 mM Bz+ETH, 20% to 40% ethanol) was “dose-dependent increase” and the “effect of 42° on CT response to ethanol relative to 23°” value ([1]; 80% ethanol, H2O rinse) was “no effect”. The “ethanol concentration that inhibited CT responses” value ([1]; KCl and NaCl) was greater than 60%, the “CT response to ethanol alone” value ([1]; ethanol 40%-100% in distilled H2O, 23°) was “only a transient phasic component” and the “CT response to R+60% ETH” value ([3]; VR1 KO mice, 10 mM KCl+60% ETH) was “no CT response”. For the same compound, the “effect on the NaCl CT response or the Bz-insensitive NaCl CT response” value ([3]; VR1 KO mice, 60% ETH) was “no effect”, the “increase in F490 relative to zero ethanol” value ([4]; 150 NaCl+5 mM Bz+10% ethanol) was “bigger increase” and the “increase in F490 relative to 10% ethanol” value ([4]; 150 NaCl+5 mM Bz+40% ethanol) was “further increase”. The “change in F490 relative to zero ethanol” value ([4]; Na+-free Ringer's solution, 10% or 40% ethanol) was “no changes”, the “CT response relative to 10 mM KCl” value ([2]; WT mice, 10 mM KCl+60% ETH) was “greater CT response” and the “effect on Bz-insensitive NaCl CT response” value ([2]; WT mice, 100 mM NaCl+5 μM Bz+60% ETH) was “inhibited the CT response”.

With Evodiamine the “effect on chorda tympani response in rinse solution” value ([1]; 100 μM evodiamine in 10 mM KCl) was “no effect”, the “concentration at which enhancement of the Bz-insensitive NaCl chorda tympani response begins” value ([1]; 100 mM NaCl+5 μM Bz) was 30 µM and the “concentration of maximum enhancement of the Bz-insensitive NaCl chorda tympani response” value ([1]; 100 mM NaCl+5 μM Bz) was 300 µM. For the same compound, the “concentration at which the response is the same as the control response” value ([1]; 100 mM NaCl+5 μM benzamil) was 3 mM and the “effect on chorda tympani response at concentrations higher than 3 mM” value ([1]; 100 mM NaCl+5 μM benzamil) was “inhibited”.
